In US10550105B2 (Ribon Therapeutics Inc., priority 2018, dated 2020):

Target: PARP7 (Homo sapiens (Human), UniProt Q7Z3E1)
Experiment: Enzymatic assay for inhibition of PARP7: TR-FRET displacement of biotinylated Probe A from the TIPARP active site
Format: binding
Conditions: Table A-1
Summary of the method: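 Compounds were tested as dose-response series, and reactions were incubated a further 30 min at 25° C. TR-FRET was read at 320 nm excitation with 615 and 665 nm emission after a 90 μs delay. The 665/615 ratio gave the TIPARP–Probe A complex, and % inhibition was fitted against concentration.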

PARP7, sequence (Q7Z3E1 whole entry): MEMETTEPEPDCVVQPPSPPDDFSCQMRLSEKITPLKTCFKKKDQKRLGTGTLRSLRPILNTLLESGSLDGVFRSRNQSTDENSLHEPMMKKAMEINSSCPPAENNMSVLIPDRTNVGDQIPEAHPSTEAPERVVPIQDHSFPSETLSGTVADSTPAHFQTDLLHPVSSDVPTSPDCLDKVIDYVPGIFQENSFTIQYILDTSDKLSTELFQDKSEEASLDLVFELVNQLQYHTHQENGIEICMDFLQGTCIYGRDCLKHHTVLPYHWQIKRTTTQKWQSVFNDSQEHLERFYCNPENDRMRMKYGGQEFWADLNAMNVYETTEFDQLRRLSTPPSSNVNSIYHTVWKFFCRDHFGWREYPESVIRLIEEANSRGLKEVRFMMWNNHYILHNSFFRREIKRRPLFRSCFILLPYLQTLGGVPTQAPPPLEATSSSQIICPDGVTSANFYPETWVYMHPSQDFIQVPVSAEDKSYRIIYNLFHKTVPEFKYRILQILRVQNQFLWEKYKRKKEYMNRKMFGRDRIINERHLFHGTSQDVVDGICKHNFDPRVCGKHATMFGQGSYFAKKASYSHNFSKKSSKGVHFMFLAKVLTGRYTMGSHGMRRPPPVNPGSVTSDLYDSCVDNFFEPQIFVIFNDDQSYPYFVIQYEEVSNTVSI

Compound | IC50
O=C(C[C@@H]1CC[C@H]([C@@H]2CCCN2c2cn[nH]c(=O)c2C(F)(F)F)O1)N1CCN(c2ncc(Cl)cn2)CC1 (single isomer, unassigned) [Example 147C] | 100 to 1000 nM
C[C@H]1CN(c2ccc(C#N)cn2)CCN1C(=O)CCOC[C@@H]1CCCN1c1cn[nH]c(=O)c1C(F)(F)F [Example 100B, 6-[(3S)-3-methyl-4-(3-[[(2S)-1-[6-oxo-5-(trifluoromethyl)-1,6-dihydropyridazin-4-yl]pyrrolidin-2-yl]methoxy]propanoyl)piperazin-1-yl]pyridine-3-carbonitrile] | < 100 nM
COC[C@@H](COCCC(=O)N1CCN(c2ncc(Cl)cn2)CC1)Oc1cn[nH]c(=O)c1C(F)(F)F (single isomer, unassigned) | < 100 nM
N#Cc1ccc(N2CCN(C(=O)CCOCC3CCCCN3c3cn[nH]c(=O)c3Br)CC2)nc1 (centres unmarked) [Example 131, 6-(4-(3-((1-(5-bromo-6-oxo-1,6-dihydropyridazin-4-yl)piperidin-2-yl)methoxy)propanoyl)piperazin-1-yl)nicotinonitrile] | 100 to 1000 nM
O=c1[nH]ncc(N2Cc3cccc(OC4CCNCC4)c3C2)c1C1CC1 [Example 183, 4-Cyclopropyl-5-(4-(piperidin-4-yloxy)isoindolin-2-yl)pyridazin-3(2H)-one formic acid] | ≥ 1000 nM
6-[4-(3-[[(1S,2S)-1-[[6-Oxo-5-(trifluoromethyl)-1-[[2-(trimethylsilyl)ethoxy]methyl]-1,6-dihydropyridazin-4-yl]amino]-2,3-dihydro-1H-inden-2-yl]oxy]propanoyl)piperazin-1-yl]pyridine-3-carbonitrile [Example 537 Isomer A] | ≥ 1000 nM
N#Cc1ccc(N2C[C@@H]3C[C@H]2CN3C(=O)CCOC[C@@H]2CCCN2c2cn[nH]c(=O)c2C(F)(F)F)nc1 [Example 112A, 6-[(1S,4S)-5-(3-(((S)-1-(6-oxo-5-(trifluoromethyl)-1,6-dihydropyridazin-4-yl)pyrrolidin-2-yl)methoxy)propanoyl)-2,5-diaza-bicyclo[2.2.1]heptan-2-yl)nicotinonitrile] | 100 to 1000 nM
N#Cc1ccc(NCCC(=O)Nc2cccc(OC[C@@H]3CCCN3c3cn[nH]c(=O)c3C(F)(F)F)c2)nc1 [Example 85, 3-[(5-cyanopyridin-2-yl)amino]-N-(3-[[(2S)-1-[6-oxo-5-(trifluoromethyl)-1,6-dihydropyridazin-4-yl]pyrrolidin-2-yl]methoxy]phenyl)propanamide] | < 100 nM
COc1ccc2c(c1)CN(c1cn[nH]c(=O)c1Cl)C2 [Example 155, 4-Chloro-5-(5-methoxyisoindolin-2-yl)pyridazin-3(2H)-one] | 100 to 1000 nM
N#Cc1ccc(N2CCN(C(=O)COC[C@@H]3CCCN3c3cn[nH]c(=O)c3C(F)(F)F)CC2)nc1 [Example 76, 6-[4-(2-[[(2S)-1-[6-oxo-5-(trifluoromethyl)-1,6-dihydropyridazin-4-yl]pyrrolidin-2-yl]methoxy]acetyl)piperazin-1-yl]pyridine-3-carbonitrile] | < 100 nM
CC(=O)N1CCC(Oc2ccc(F)c3c2CN(c2cn[nH]c(=O)c2C(F)(F)F)C3)CC1 [Example 2, 5-[4-[(1-acetylpiperidin-4-yl)oxy]-7-fluoro-2,3-dihydro-1H-isoindol-2-yl]-4-(trifluoromethyl)-2,3-dihydropyridazin-3-one] | < 100 nM
N#Cc1cnc(N2CCN(C(=O)c3cccc(OCC4c5ccccc5CN4c4cn[nH]c(=O)c4C(F)(F)F)c3)CC2)cn1 (centres unmarked) [Example 366, 5-(4-(3-((2-(6-Oxo-5-(trifluoromethyl)-1,6-dihydropyridazin-4-yl)isoindolin-1-yl)methoxy)benzoyl)piperazin-1-yl)pyrazine-2-carbonitrile] | < 100 nM
N#CCC1c2ccccc2CN1c1cn[nH]c(=O)c1C(F)(F)F (centres unmarked) [Example 330, 2-(2-(6-Oxo-5-(trifluoromethyl)-1,6-dihydropyridazin-4-yl)isoindolin-1-yl)acetonitrile] | ≥ 1000 nM
N#Cc1ccc(N2CCN(C(=O)c3ccnc(OC[C@@H]4CCCN4c4cn[nH]c(=O)c4C(F)(F)F)n3)CC2)nc1 [Example 68, 6-[4-[(2-[[(2S)-1-[6-oxo-5-(trifluoromethyl)-1,6-dihydropyridazin-4-yl]pyrrolidin-2-yl]methoxy]pyrimidin-4-yl)carbonyl]piperazin-1-yl]pyridine-3-carbonitrile] | < 100 nM
O=c1[nH]ncc(N2Cc3ccc(OC4CCNCC4)cc3C2)c1Cl [Example 158, 4-Chloro-5-(5-(piperidin-4-yloxy)isoindolin-2-yl)pyridazin-3(2H)-one] | 100 to 1000 nM
N#Cc1ccc(N2CCN(C(=O)c3cncc(OC[C@@H]4CCCN4c4cn[nH]c(=O)c4C(F)(F)F)n3)CC2)nc1 [Example 74, 6-[4-[(6-[[(2S)-1-[6-oxo-5-(trifluoromethyl)-1,6-dihydropyridazin-4-yl]pyrrolidin-2-yl]methoxy]pyrazin-2-yl)carbonyl]piperazin-1-yl]pyridine-3-carbonitrile] | < 100 nM
CC(=O)N1CCC(Oc2ccc3c(n2)CN(c2cn[nH]c(=O)c2C(F)(F)F)C3)CC1 [Example 333, 5-(2-((1-Acetylpiperidin-4-yl)oxy)-5,7-dihydro-6H-pyrrolo[3,4-b]pyridin-6-yl)-4-(trifluoromethyl)pyridazin-3(2H)-one] | < 100 nM
CN1CCCC1COc1cc2c(cc1F)CN(c1cn[nH]c(=O)c1C(F)(F)F)C2 (centres unmarked) [Example 49, 5-[5-fluoro-6-[(1-methylpyrrolidin-2-yl)methoxy]-2,3-dihydro-1H-isoindol-2-yl]-4-(trifluoromethyl)-2,3-dihydropyridazin-3-one; formic acid] | < 100 nM

Now from value to compound:

IC50 | Compound
< 100 nM | C[C@@H](COCCC(=O)N1CCC(c2ccc(C#N)cn2)CC1)Oc1cn[nH]c(=O)c1C(F)(F)F [Example 658, (S)-6-(1-(3-(2-((6-Oxo-5-(trifluoromethyl)-1,6-dihydropyridazin-4-yl)oxy)propoxy)propanoyl)piperidin-4-yl)nicotinonitrile]
< 100 nM | O=C(CCOC[C@H](Nc1cn[nH]c(=O)c1C(F)(F)F)[C@H]1CCOC1)N1CCN(c2ncc(C(F)(F)F)cn2)CC1 (single isomer, unassigned) [Example 614 Isomer B]
100 to 1000 nM | C[C@H](COCCC(=O)N1CCN(c2ncc(C(F)(F)F)cn2)CC1)Oc1cn[nH]c(=O)c1C(F)(F)F (single isomer, unassigned) [Example 544 Isomer B]
100 to 1000 nM | O=C(CCOC[C@H]1c2ccccc2CN1c1cn[nH]c(=O)c1Cl)N1CCN(c2ncc(C(F)(F)F)cn2)CC1 [Example 416, (R)-4-Chloro-5-(1-((3-oxo-3-(4-(5-(trifluoromethyl)pyrimidin-2-yl)piperazin-1-yl)propoxy)methyl)isoindolin-2-yl)pyridazin-3(2H)-one]
< 100 nM | N#Cc1ccc(N2CCN(C(=O)C[C@H]3CC[C@@H](COc4cn[nH]c(=O)c4C(F)(F)F)O3)CC2)nc1 [Example 580 Isomer C, 6-(4-[2-[(2R,5S)-5-([[6-oxo-5-(trifluoromethyl)-1,6-dihydropyridazin-4-yl]oxy]methyl)oxolan-2-yl]acetyl]piperazin-1-yl)pyridine-3-carbonitrile]
< 100 nM | CN(C)CC(COCCC(=O)N1CCN(c2ccc(C#N)cn2)CC1)Oc1cn[nH]c(=O)c1C(F)(F)F (centres unmarked) [Example 542, 6-(4-[3-[3-(Dimethylamino)-2-[[6-oxo-5-(trifluoromethyl)-1,6-dihydropyridazin-4-yl]oxy]propoxy]propanoyl]piperazin-1-yl)pyridine-3-carbonitrile]
< 100 nM | C[C@@H](COCCS(=O)(=O)N1CCN(c2ncc(C(F)(F)F)s2)CC1)Oc1cn[nH]c(=O)c1C(F)(F)F [Example 625, (S)-4-(Trifluoromethyl)-5-((1-(2-[(4-(5-(trifluoromethyl)thiazol-2-yl)piperazin-1-yl)sulfonyl)ethoxy)propan-2-yl)oxy)pyridazin-3(2H)-one]
≥ 1000 nM | CN1CCN(C(=O)CCOC[C@H]2c3ccccc3CN2c2cn[nH]c(=O)c2C(F)(F)F)CC1 [Example 422, (R)-5-(1-((3-(4-Methylpiperazin-1-yl)-3-oxopropoxy)methyl)isoindolin-2-yl)-4-(trifluoromethyl)pyridazin-3(2H)-one]
≥ 1000 nM | COC[C@H](COCCC(=O)N1CCN(c2ncc(C(F)(F)F)cn2)CC1)Oc1cn[nH]c(=O)c1Br [Example 667, (R)-4-Bromo-5-((1-methoxy-3-(3-oxo-3-(4-(5-(trifluoromethyl)pyrimidin-2-yl)piperazin-1-yl)propoxy)propan-2-yl)oxy)pyridazin-3(2H)-one]
< 100 nM | N#Cc1ccc(N2CCN(C(=O)CCOC[C@@H]3CCCN3c3cn[nH]c(=O)c3C(F)(F)F)CC2)cn1 [Example 475, (S)-5-(4-(3-((1-(6-Oxo-5-(trifluoromethyl)-1,6-dihydropyridazin-4-yl)pyrrolidin-2-yl)methoxy)propanoyl)piperazin-1-yl)picolinonitrile]
100 to 1000 nM | N#Cc1ccc(N2CCN(C(=O)c3ccc(OCC4c5ccccc5CN4c4cn[nH]c(=O)c4C(F)(F)F)cc3)CC2)nc1 (centres unmarked) [Example 371, 6-(4-(4-((2-(6-Oxo-5-(trifluoromethyl)-1,6-dihydropyridazin-4-yl)isoindolin-1-yl)methoxy)benzoyl)piperazin-1-yl)nicotinonitrile]
< 100 nM | C[C@@H](COCCC(=O)N1CCN(c2ncc(C(F)(F)F)cn2)CC1)Oc1cn[nH]c(=O)c1Cl (single isomer, unassigned) [Example 578 Isomer A]
100 to 1000 nM | C[C@H](CC(=O)N1CCN(c2ccc(C#N)cn2)CC1)OCCOc1cn[nH]c(=O)c1C(F)(F)F (single isomer, unassigned) [Example 538 Isomer A]
< 100 nM | O=C(CCOCCNc1cn[nH]c(=O)c1C(F)(F)F)N1CCN(c2ncc(Cl)cn2)CC1 [Example 503, 5-[(2-[3-[4-(5-Chloropyrimidin-2-yl)piperazin-1-yl]-3-oxopropoxy]ethyl)amino]-4-(trifluoromethyl)-2,3-dihydropyridazin-3-one]
